Measurements published in PubChem BioAssay AID1996.
Converted amounts (≈) assume the structure as drawn.

Conditions: buffer; pH 7.4; 200.0 µM

Structure (SMILES) | solubility kinetic [µg/mL]
Cn1c(CN2CCCCC2)nc2cc([N+](=O)[O-])ccc21 | > 41.1
O=C1CNC(=S)N1Cc1ccc(Cl)cc1 | > 36.1
O=C1NNC(=O)C1c1ccccc1 | > 26.4
CN1CCN(c2ccc([N+](=O)[O-])c(SCCO)c2)CC1 | > 44.6
CCC(NC(=O)C1CCCC1)c1ccccc1 (centres undefined) | > 34.7
COc1ccc(S(=O)(=O)Nc2cccc(S(=O)(=O)N3CCCCC3)c2)cc1 | 44 (≈ 107 µM)
COc1cc2c(cc1OC)C(=S)NC1(CCCC1)C2 | 5.5 (≈ 19.8 µM)
COc1cccc(Nc2cc(C)c3ccccc3n2)c1 | 8.7 (≈ 32.9 µM)
COCc1[nH]c(=S)[nH]c(=O)c1C | > 27.9
COc1cccc2cc(/C(=N/O)c3ccccc3)oc12 | < 0.6
COc1ccc(CN2C(=O)CCCc3ccccc32)cc1 | > 42.2
CCNC(=S)N1CCCCC1CO (centres undefined) | 27.2 (≈ 134 µM)
COc1ccc2[nH]cc(CCNCc3cccnc3)c2c1.Cl | 46.2
Cc1csc(NC(=O)c2cnc3ccccc3n2)n1 | 12.5 (≈ 46.2 µM)
O=C(NCc1cccnc1)Nc1ccc(Cl)cc1Cl | > 44.4
Cc1cccc[n+]1CC(=O)Nc1ccccc1.[Cl-] | 26.6
Cc1cc(S(=O)(=O)Nc2c(C)nn(C)c2C)c(Cl)cc1Cl | > 52.2
CC1(C)Cc2cccc(C(=O)Nc3ccncc3)c2O1 | 34.8 (≈ 130 µM)
N/C(=N\c1nc2ccccc2o1)NC(=O)/C=C/c1ccccc1 | < 0.2
O=C(CNS(=O)(=O)c1ccccc1)Nc1cccc([N+](=O)[O-])c1 | 49.1 (≈ 146 µM)
O=C(CSc1ccc(F)cc1)N1CCOCC1 | > 38.3
O=C(COc1ncnc2ccccc12)NCCc1ccccc1 | 44.8 (≈ 146 µM)
O=C(NC(=O)c1cnccc1C(F)(F)F)Nc1ccccc1 | 18.3 (≈ 59.2 µM)
O=C(COc1ccc([N+](=O)[O-])cc1)N1CCc2ccccc2C1 | 37.5 (≈ 120 µM)
CC(=O)Nc1ccccc1Oc1ccccc1 | > 34.1
CN(C)C(=O)Oc1ccc2c(c1)O/C(=C\c1cccc([N+](=O)[O-])c1)C2=O | < 0.4
O=C1Nc2ccc(Br)cc2C1=C1CCCCC1 | 7.4 (≈ 25.3 µM)

Second part, the compound after the results:

solubility kinetic [µg/mL] | Structure (SMILES)
> 42.2 | CCCCCCCn1ccc(O)c(CC(=O)OC)c1=O
> 49.5 | C=CCn1c(Oc2ccccc2F)nc2c1c(=O)n(C)c(=O)n2C
> 47.5 | Cc1ccc2c(C)c(C(=O)NCCN3CCOC3=O)oc2c1C
9.6 (≈ 29.5 µM) | CCOC(=O)c1ccc(NC2=CC(=O)CC(c3ccco3)C2)cc1 (centres undefined)
> 70.7 | CCN(CC(=O)NCc1cccs1)C(=O)c1ccc(S(=O)(=O)N(C)c2ccccc2)cc1
> 47.3 | COc1ccccc1CNC(=O)Cc1ccc(OC)c(OC)c1
25.9 (≈ 97.5 µM) | O=C(NCCOc1ccc(Cl)cc1)c1ccco1
12.1 (≈ 33.3 µM) | CCNS(=O)(=O)c1ccc(NC(=O)Nc2ccc3c(c2)OCO3)cc1
44.2 (≈ 127 µM) | Cc1cccc(OCC(=O)OCC(=O)Nc2sccc2C(N)=O)c1
53.5 (≈ 133 µM) | CCOC(=O)C1=C(CN2CCCCCC2)NC(=O)NC1c1ccc2c(c1)OCO2 (centres undefined)
15 (≈ 30.3 µM) | C=CCn1c(SCC(=O)Nc2sc3c(c2C#N)CCC(C)C3)nc2cc(C(=O)O)ccc2c1=O (centres undefined)
> 49 | CCc1nn(CC(=O)Nc2cc(C)ccc2C)c(=N)s1.Cl
38.1 (≈ 138 µM) | O=C(NCCc1ccc(Cl)cc1)c1ccc(=O)[nH]c1
3.4 (≈ 10.3 µM) | COc1ccc2c(c1)C(=C(C#N)C#N)C(=O)N2CCc1ccccc1
32.1 (≈ 125 µM) | Cc1ccc(OCC(=O)Nc2ccncc2)c(C)c1
> 36.3 | CCCNC(=O)c1cccc(Br)c1
> 39.1 | CCC(CC)C(=O)N1CCN(c2ccccc2)CC1
1.1 (≈ 3.79 µM) | Cc1cc([N+](=O)[O-])ccc1NC(=O)c1csc(C)c1C
1 (≈ 3.47 µM) | COc1cc([N+](=O)[O-])ccc1NC(=O)Nc1cccnc1
39.6 (≈ 122 µM) | COC(=O)c1cccc(NC(=O)CN2CCc3ccccc3C2)c1
> 37.7 | O=C(COC(=O)/C=C/c1cccs1)NC1CC1
2.2 (≈ 6.73 µM) | Cn1cc(CCC(=O)NCc2ccc(Cl)cc2)c2ccccc21
